Reference: patent publication US9458165B2, “DOT1L inhibitors” (Dana-Farber Cancer Institute, Inc., priority 2014, dated 2016)
Where two headings read alike, the source gives them in different places.

Assays:
His6-DOT1L = His6-DOT1L (Homo sapiens, UniProt Q8TEK3); assay: ALPHA assay (AlphaScreen) of probe displacement from DOT1L; format: binding; conditions: FIG. 9
Excerpt: In and ALPHA assay binding of binding partners captured on the beads leads to an energy transfer from one bead to the other, ultimately producing a luminescent signal. Alpha assays require two bead types: donor beads and acceptor beads. Donor beads contain a photosensitizer, phthalocyanine, which converts ambient oxygen to an excited and reactive form of O2, singlet oxygen, upon illumination at 680 nm. Within its 4 μsec half-life, singlet oxygen can diffuse approximately 200 nm in solution. If an Acceptor bead is within that distance, energy is transferred from the singlet oxygen to thioxene derivatives within the Acceptor bead, resulting in light production. If the Donor bead is not in proximity of an Acceptor bead, the singlet oxygen falls to ground state and no signal is produced. […]
Two stock solutions are made at 2× the final concentration in Alpha buffer. […] Finally, 10 μL of solution B is added to the 384 well alpha plate, the plate is spun down and incubated at room temperature and read on a plate reader.
Plates can be read with an Envision plate reader, which comes with a predefined AlphaScreen program that has the correct excitation and emission wavelengths, cutoff filters, delay time, etc. […]
Plates are incubated at room temperature for 20 minutes, then read on plate reader.

MV411 = assay: Cellular activity in DOT1L related leukemia cell line (FIG. 10A); format: cell-based; conditions: compared to EPZ4777, FIG. 10A
[1] = Pharmacokinetic study, intravenous 5 mg/kg; format: in vivo; conditions: CD1 mice
Protocol: Pharmacokinetic studies of the compound of Example 1 (i.e. CC-006) and previously disclosed compounds EPZ004777, CC001 (see U.S. 2014/0051654) and FED1 were performed in CD1 mice following intravenous administration, as detailed in Table 1.
Mean plasma concentration-time profiles representative of the compound of Example 1 (i.e. CC-006) after intravenous dosing (5 mg kg^−1) are shown in FIG. 8A (data represent the mean and s.d. (n=3)). […] From the pharmacokinetic properties, the compound of Example 1 (i.e. CC-006) has potential for use in treatment using intravenous administration due to its long half-life, as compared to subcutaneous administration.

[2] = Pharmacokinetic study, IP 100 mg/kg, whole blood concentration; format: in vivo, male CD1 mice; conditions: for AUC(0-inf) / AUC(0-t) / Cmax / half-life / Tmax / concentration at 0.083 hr / concentration at 0.25 hr / concentration at 0.5 hr / concentration at 1 h / concentration at 2 h / concentration at 4 h / concentration at 8 h / concentration at 24 h: male, CD1, mouse, ip, 100 mg/kg
Protocol: Pharmacokinetic studies in CD1 mice using the compound of Example 1 (i.e. CC-006) (100 mg/kg, IP dose) were also performed.

[3] = Cellular assays (not specified at the place); format: cell-based
Protocol: The compounds of Examples 1-4 and known DOT1L inhibitors were analyzed in a High Content Imaging Assay (HCI).

[4] = read-out: Concentration Mouse#1
[5] = read-out: Concentration Mouse#2
[6] = read-out: Concentration Mouse#3

His6-DOT1L, sequence (Q8TEK3 whole entry): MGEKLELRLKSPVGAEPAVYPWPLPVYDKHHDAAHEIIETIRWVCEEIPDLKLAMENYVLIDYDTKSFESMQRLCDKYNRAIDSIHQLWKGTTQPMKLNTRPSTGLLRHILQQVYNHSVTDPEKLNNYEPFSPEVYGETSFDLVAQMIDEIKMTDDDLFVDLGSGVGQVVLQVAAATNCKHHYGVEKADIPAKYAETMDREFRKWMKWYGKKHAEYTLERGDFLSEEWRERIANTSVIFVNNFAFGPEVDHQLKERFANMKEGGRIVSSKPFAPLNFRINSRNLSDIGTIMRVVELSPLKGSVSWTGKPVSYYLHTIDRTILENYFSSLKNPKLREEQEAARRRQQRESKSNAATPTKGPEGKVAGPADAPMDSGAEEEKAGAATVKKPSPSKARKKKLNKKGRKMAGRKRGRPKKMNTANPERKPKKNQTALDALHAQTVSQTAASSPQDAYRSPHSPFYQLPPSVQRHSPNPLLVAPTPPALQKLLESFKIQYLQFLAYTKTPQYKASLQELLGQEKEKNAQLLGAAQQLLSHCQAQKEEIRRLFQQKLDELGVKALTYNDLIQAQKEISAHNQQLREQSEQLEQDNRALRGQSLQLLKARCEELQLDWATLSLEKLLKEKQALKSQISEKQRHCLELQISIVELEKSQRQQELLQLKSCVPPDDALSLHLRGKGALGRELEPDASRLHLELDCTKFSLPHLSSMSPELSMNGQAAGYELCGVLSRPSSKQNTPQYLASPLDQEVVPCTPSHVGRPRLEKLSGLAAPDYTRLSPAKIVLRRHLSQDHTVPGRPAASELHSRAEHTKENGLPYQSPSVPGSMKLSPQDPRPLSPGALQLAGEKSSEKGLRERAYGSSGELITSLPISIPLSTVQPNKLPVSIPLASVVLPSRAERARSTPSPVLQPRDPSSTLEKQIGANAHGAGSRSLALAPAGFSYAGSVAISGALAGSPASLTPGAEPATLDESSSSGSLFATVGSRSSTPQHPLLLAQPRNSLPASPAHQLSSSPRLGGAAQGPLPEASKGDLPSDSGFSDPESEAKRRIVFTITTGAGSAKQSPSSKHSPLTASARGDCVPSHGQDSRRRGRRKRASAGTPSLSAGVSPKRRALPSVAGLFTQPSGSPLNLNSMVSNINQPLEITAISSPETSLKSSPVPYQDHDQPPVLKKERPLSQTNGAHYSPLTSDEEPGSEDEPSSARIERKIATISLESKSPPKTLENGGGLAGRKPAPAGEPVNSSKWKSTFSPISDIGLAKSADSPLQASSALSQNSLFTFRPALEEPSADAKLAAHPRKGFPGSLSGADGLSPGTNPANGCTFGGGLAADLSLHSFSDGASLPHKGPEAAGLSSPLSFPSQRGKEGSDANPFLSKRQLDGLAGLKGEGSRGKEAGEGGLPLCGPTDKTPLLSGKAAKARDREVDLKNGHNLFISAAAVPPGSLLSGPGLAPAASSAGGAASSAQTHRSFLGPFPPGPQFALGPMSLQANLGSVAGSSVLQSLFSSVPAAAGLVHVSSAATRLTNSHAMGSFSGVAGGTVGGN

With `CC(C)N(C[C@H]1C[C@@H](n2cc(C#N)c3c(N)ncnc32)[C@H](O)[C@@H]1O)C1CC(CCc2nc3ccc(C(C)(C)C)cc3[nH]2)C1` (stereo partly drawn) [Example 1, 4-amino-7-((1R,2S,3R,4R)-4-(((3-(2-(6-(tert-butyl)-1H-benzo[d]imidazol-2-yl)ethyl)cyclobutyl)(isopropyl)amino)methyl)-2,3-dihydroxycyclopentyl)-7H-pyrrolo[2,3-d]pyrimidine-5-carbonitrile] the “binding to DOT1L (ALPHA screen)” value (His6-DOT1L) was “binds to DOT1L”, the “cellular activity on DOT1L related leukemia” value (MV411) was “more potent than EPZ4777” and the “half-life relative to the half-life of EPZ004777” value [1] was “approximately 4.3 ×”. For the same molecule, the “half-life relative to the half-life of FED1” value [1] was roughly 10.5 ×, the “drug exposure (area under the curve (AUC))” value ([1]; 5 mg/kg, FIG. 8B) was “good drug exposure” and the half-life ([1]; mouse, plasma, 5 mg/kg, FIG. 8B, read-out: half-life (T1/2) (converted)) was 12.6 h. For the same molecule, the AUC(0-inf) ([2]; read-out: AUCINF Mean) was 86900 ng·h/mL, the AUC(0-inf) ([2]; read-out: AUCINF Mouse#1) was 58900 ng·h/mL and the AUC(0-inf) ([2]; read-out: AUCINF Mouse#2) was 72900 ng·h/mL. For the same molecule, the AUC(0-inf) ([2]; read-out: AUCINF Mouse#3) was 129000 ng·h/mL, the AUC(0-t) ([2]; read-out: AUClast Mean) was 84400 ng·h/mL and the AUC(0-t) ([2]; read-out: AUClast Mouse#1) was 57100 ng·h/mL. For the same molecule, the AUC(0-t) ([2]; read-out: AUClast Mouse#2) was 70500 ng·h/mL, the AUC(0-t) ([2]; read-out: AUClast Mouse#3) was 126000 ng·h/mL and the Cmax ([2]; read-out: Cmax Mean) was 15300 ng/mL. It also gave a Cmax ([2]; read-out: Cmax Mouse#1) of 13100 ng/mL, a Cmax ([2]; read-out: Cmax Mouse#2) of 15000 ng/mL and a Cmax ([2]; read-out: Cmax Mouse#3) of 17800 ng/mL. The half-life ([2]; read-out: Terminal t1/2 Mean (converted)) was 4.65 h, the half-life ([2]; read-out: Terminal t1/2 Mouse#1 (converted)) was 4.64 h and the half-life ([2]; read-out: Terminal t1/2 Mouse#2 (converted)) was 4.8 h. It also gave a half-life ([2]; read-out: Terminal t1/2 Mouse#3 (converted)) of 4.51 h, a Tmax ([2]; read-out: Tmax Mean) of 0.833 h and a Tmax ([2]; read-out: Tmax Mouse#1) of 1 h. For the same molecule, the Tmax ([2]; read-out: Tmax Mouse#2) was 1 h, the Tmax ([2]; read-out: Tmax Mouse#3) was 0.5 h and the concentration at 0.083 hr ([2]; read-out: Concentration Mean) was 5350 ng/mL. For the same molecule, the concentration at 0.083 hr [2, 4] was 4600 ng/mL, the concentration at 0.083 hr [2, 5] was 5940 ng/mL and the concentration at 0.083 hr [2, 6] was 5500 ng/mL. For the same molecule, the concentration at 0.25 hr ([2]; read-out: Concentration Mean) was 12700 ng/mL, the concentration at 0.25 hr [2, 4] was 12000 ng/mL and the concentration at 0.25 hr [2, 5] was 13400 ng/mL. For the same molecule, the concentration at 0.25 hr [2, 6] was 12800 ng/mL, the concentration at 0.5 hr ([2]; read-out: Concentration Mean) was 14300 ng/mL and the concentration at 0.5 hr [2, 4] was 11100 ng/mL. It also gave a concentration at 0.5 hr [2, 5] of 14100 ng/mL, a concentration at 0.5 hr [2, 6] of 17800 ng/mL and a concentration at 1 h ([2]; read-out: Concentration Mean) of 15200 ng/mL. The concentration at 1 h [2, 4] was 13100 ng/mL, the concentration at 1 h [2, 5] was 15000 ng/mL and the concentration at 1 h [2, 6] was 17500 ng/mL. For the same molecule, the concentration at 2 h ([2]; read-out: Concentration Mean) was 12600 ng/mL, the concentration at 2 h [2, 4] was 10500 ng/mL and the concentration at 2 h [2, 5] was 11300 ng/mL. For the same molecule, the concentration at 2 h [2, 6] was 16100 ng/mL, the concentration at 4 h ([2]; read-out: Concentration Mean) was 7450 ng/mL and the concentration at 4 h [2, 4] was 4210 ng/mL. It also gave a concentration at 4 h [2, 5] of 5380 ng/mL, a concentration at 4 h [2, 6] of 12800 ng/mL and a concentration at 8 h ([2]; read-out: Concentration Mean) of 2000 ng/mL. For the same molecule, the concentration at 8 h [2, 4] was 957 ng/mL, the concentration at 8 h [2, 5] was 1460 ng/mL and the concentration at 8 h [2, 6] was 3570 ng/mL. The concentration at 24 h ([2]; read-out: Concentration Mean) was 382 ng/mL, the concentration at 24 h [2, 4] was 266 ng/mL and the concentration at 24 h [2, 5] was 350 ng/mL. The concentration at 24 h [2, 6] was 531 ng/mL, the “Concentration Mean” value ([2]; sampling time 0 hr) was “BQL” and the “Concentration Mouse#1” value ([2]; sampling time 0 hr) was “BQL”. The “Concentration Mouse#2” value ([2]; sampling time 0 hr) was “BQL”, the “Concentration Mouse#3” value ([2]; sampling time 0 hr) was “BQL” and the “cellular activity compared to CC0001” value [3] was “largely improved cellular activity compared to CC0001”.
